From patent US10125139B2, “Pesticidally active polycyclic derivatives with sulfur substituted five-membered ring heterocycles” (Syngenta Participations AG, priority 2015, dated 2018)

Tests used:
[1] = system: Diabrotica balteata (Corn Root Worm); assay: Example B2: Diabrotica balteata, sprayed maize sprouts, L2 larvae; assay type: in vivo; settings: for percent effect (mortality or growth inhibition) at 200 ppm: Diabrotica balteata, 96 h, application rate of 200 ppm, 4 days after infestation, L2 larvae, read-out: effect in at least one of the two categories (mortality or growth inhibition)
Procedure: Example B2: Diabrotica balteata (Corn Root Worm)
Maize sprouts placed onto an agar layer in 24-well microtiter plates were treated with aqueous test solutions prepared from 10,000 ppm DMSO stock solutions by spraying. After drying, the plates were infested with L2 larvae (6 to 10 per well). The samples were assessed for mortality and growth inhibition in comparison to untreated samples 4 days after infestation. The following compounds gave an effect of at least 80% in at least one of the two categories (mortality or growth inhibition) at an application rate of 200 ppm:
(§1) Insecticidal action against Diabrotica balteata (Corn root worm), Plutella xylostella (Diamond black moth), and Spodoptera littoralis (Egyptian cotton leaf worm). The tests were carried out as described in biological examples B2, B8 and B9, respectively, with the larval feeding/contact activity (mortality only) being reported as Breakpoint (BP80) values in parts per million (i.e. the lowest concentration which gives 80% larval mortality).

[2] = system: Plutella xylostella (Diamond Back Moth); assay: Example B8: Plutella xylostella, artificial diet, L2 larvae; assay type: in vivo; settings: for percent effect (mortality or growth inhibition) at 200 ppm: Plutella xylostella, 120 h, application rate of 200 ppm, 5 days after infestation, L2 larvae, read-out: effect in at least one of the two categories (mortality or growth inhibition)
Procedure: Example B8: Plutella xylostella (Diamond Back Moth)
24-well microtiter plates with artificial diet were treated with aqueous test solutions prepared from 10,000 ppm DMSO stock solutions by pipetting. After drying, the plates were infested with L2 larvae (10 to 15 per well). The samples were assessed for mortality and growth inhibition in comparison to untreated samples 5 days after infestation. The following compounds gave an effect of at least 80% in at least one of the two categories (mortality or growth inhibition) at an application rate of 200 ppm:
as §1

[3] = system: Spodoptera littoralis (Egyptian Cotton Leaf Worm); assay: Example B9: Spodoptera littoralis, cotton leaf discs, L1 larvae; assay type: in vivo; settings: for percent control (mortality, anti-feedant effect or growth inhibition) at 200 ppm: Spodoptera littoralis, foliar, 72 h, application rate of 200 ppm, 3 days after infestation, L1 larvae
Procedure: Example B9: Spodoptera littoralis (Egyptian Cotton Leaf Worm)
Cotton leaf discs were placed onto agar in 24-well microtiter plates and sprayed with aqueous test solutions prepared from 10,000 ppm DMSO stock solutions. After drying the leaf discs were infested with five L1 larvae. The samples were assessed for mortality, anti-feeding effect, and growth inhibition in comparison to untreated samples 3 days after infestation. Control of Spodoptera littoralis by a test sample is given when at least one of the categories mortality, anti-feedant effect, and growth inhibition is higher than the untreated sample.
as §1

[4] = system: Spodoptera littoralis (Egyptian Cotton Leaf Worm); assay: Example B10: Spodoptera littoralis systemic activity, lettuce grown on treated agar; assay type: in vivo; settings: 144 h, test rate of 12.5 ppm, 6 days after infestation, read-out: effect in at least one of the three categories (mortality, anti-feeding, or growth inhibition)
Text: Example B10: Spodoptera littoralis (Egyptian Cotton Leaf Worm) Systemic Activity
Test compounds were applied by pipette from 10,000 ppm DMSO stock solutions into 24-well plates and mixed with agar. Lettuce seeds were placed onto the agar and the multi well plate was closed by another plate which contained also agar. After 7 days the compound was absorbed by the roots and the lettuce grew into the lid plate. The lettuce leaves were then cut off into the lid plate. Spodoptera eggs were pipetted through a plastic stencil onto a humid gel blotting paper and the lid plate was closed with it. The samples were assessed for mortality, anti-feedant effect and growth inhibition in comparison to untreated samples 6 days after infestation. The following compounds gave an effect of at least 80% in at least one of the three categories (mortality, anti-feeding, or growth inhibition) at a test rate of 12.5 ppm: […]

[5] = system: Euschistus heros (Neotropical Brown Stink Bug); assay: Example B3: Euschistus heros, sprayed soybean leaves, N2 nymphs; assay type: in vivo; settings: 120 h, application rate of 200 ppm, 5 days after infestation, read-out: effect in at least one of the two categories (mortality or growth inhibition)
Procedure: Example B3: Euschistus heros (Neotropical Brown Stink Bug)
Soybean leaves on agar in 24-well microtiter plates were sprayed with aqueous test solutions prepared from 10,000 ppm DMSO stock solutions. After drying the leaves were infested with N2 nymphs. The samples were assessed for mortality and growth inhibition in comparison to untreated samples 5 days after infestation. The following compounds gave an effect of at least 80% in at least one of the two categories (mortality or growth inhibition) at an application rate of 200 ppm: […]

[6] = system: Myzus persicae (Green Peach Aphid); assay: Example B5: Myzus persicae feeding/contact activity, sunflower leaf discs; assay type: in vivo; settings: foliar, 144 h, application rate of 200 ppm, 6 days after infestation
Procedure: Example B5: Myzus persicae (Green Peach Aphid): Feeding/Contact Activity
Sunflower leaf discs were placed onto agar in a 24-well microtiter plate and sprayed with aqueous test solutions prepared from 10,000 ppm DMSO stock solutions. After drying, the leaf discs were infested with an aphid population of mixed ages. The samples were assessed for mortality 6 days after infestation.

[7] = system: Bemisia tabaci (Cotton White Fly); assay: Example B1: Bemisia tabaci feeding/contact activity, cotton leaf discs; assay type: in vivo; settings: foliar, 144 h, application rate of 200 ppm, 6 days after incubation, adult white flies
Procedure: Example B1: Bemisia tabaci (Cotton White Fly): Feeding/Contact Activity
Cotton leaf discs were placed on agar in 24-well microtiter plates and sprayed with aqueous test solutions prepared from 10,000 ppm DMSO stock solutions. After drying the leaf discs were infested with adult white flies. The samples were checked for mortality 6 days after incubation.

[8] = system: Frankliniella occidentalis (Western Flower thrips); assay: Example B4: Frankliniella occidentalis feeding/contact activity, sunflower leaf discs; assay type: in vivo; settings: foliar, 168 h, application rate of 200 ppm, 7 days after infestation, population of mixed ages
Procedure: Example B4: Frankliniella occidentalis (Western Flower thrips): Feeding/Contact Activity
(§2) Sunflower leaf discs were placed on agar in 24-well microtiter plates and sprayed with aqueous test solutions prepared from 10,000 DMSO stock solutions. After drying the leaf discs were infested with a Frankliniella population of mixed ages. The samples were assessed for mortality 7 days after infestation.

[9] = system: Thrips tabaci (Onion thrips); assay: Example B12: Thrips tabaci feeding/contact activity, sunflower leaf discs; assay type: in vivo; settings: foliar, 144 h, application rate of 200 ppm, 6 days after infestation
Procedure: Example B12: Thrips tabaci (Onion thrips) Feeding/Contact Activity
as §2, with “10,000 ppm” for “10,000”, “thrips” for “Frankliniella”, “6” for “7”

[10] = system: Myzus persicae (Green Peach Aphid); assay: Example B6: Myzus persicae systemic activity, pea seedling roots in test solution; assay type: in vivo; settings: 144 h, test rate of 24 ppm, 6 days after placing seedlings into test solutions
Procedure: Example B6: Myzus persicae (Green Peach Aphid). Systemic Activity
Roots of pea seedlings infested with an aphid population of mixed ages were placed directly into aqueous test solutions prepared from 10,000 DMSO stock solutions. The samples were assessed for mortality 6 days after placing seedlings into test solutions.

| melting point [°C] | SMILES | percent effect (mortality or growth inhibition) at 200 ppm [1] [%] | percent effect (mortality or growth inhibition) at 200 ppm [2] [%] | percent control (mortality, anti-feedant effect or growth inhibition) at 200 ppm [3] [%] | percent effect (mortality, anti-feeding or growth inhibition) at 12.5 ppm [4] [%] | percent effect (mortality or growth inhibition) at 200 ppm [5] [%] | mortality at 200 ppm [6] [%] | mortality at 200 ppm [7] [%] | mortality at 200 ppm [8] [%] | mortality at 200 ppm [9] [%] | also measured |
| --- | --- | --- | --- | --- | --- | --- | --- | --- | --- | --- | --- |
| 169 to 171 | CCS(=O)(=O)c1ncsc1-c1nc2cc(C(F)(F)F)ncc2n1C [Example I-2] |  |  |  |  |  |  |  |  |  |  |
| 248 to 250 | CCS(=O)(=O)c1nc(Br)sc1-c1nc2cc(C(F)(F)F)ncc2n1C [Example I-4, 2-bromo-4-ethylsulfonyl-5-[3-methyl-6-(trifluoromethyl)imidazo[4,5-c]pyridin-2-yl]thiazole] |  |  |  |  |  |  |  |  |  |  |
|  | CCS(=O)(=O)c1cc(I)sc1-c1nc2cc(C(F)(F)F)nnc2n1C [Example I-6, 6-(3-ethylsulfonyl-5-iodo-2-thienyl)-7-methyl-3-(trifluoromethyl)imidazo[4,5-c]pyridazine] | ≥ 80 | ≥ 80 | ≥ 80 | ≥ 80 |  |  |  |  |  |  |
| 61 to 63 | CCSc1cc(I)sc1-c1nc2cc(C(F)(F)F)ncc2n1C [Example I-12, 2-(3-ethylsulfanyl-5-iodo-2-thienyl)-3-methyl-6-(trifluoromethyl)imidazo[4,5-c]pyridine] |  |  |  |  |  |  |  |  |  |  |
|  | CCS(=O)(=O)c1cc(-c2ccc(C(F)(F)F)cc2)sc1-c1nc2cc(C(F)(F)F)ncc2n1C [Example P-1, 2-[3-ethylsulfonyl-5-[4-(trifluoromethyl)phenyl]-2-thienyl]-3-methyl-6-(trifluoromethyl)imidazo[4,5-c]pyridine] | ≥ 80 | ≥ 80 | ≥ 80 | ≥ 80 | ≥ 80 | ≥ 80 |  |  |  | BP80 (Breakpoint, lowest concentration which gives 80% larval mortality) Diabrotica balteata ([1]; larval feeding/contact activity, mortality only, test as in B2): 0.8 ppm; BP80 (Breakpoint, lowest concentration which gives 80% larval mortality) Plutella xylostella ([2]; larval feeding/contact activity, mortality only, test as in B8): 0.8 ppm; BP80 (Breakpoint, lowest concentration which gives 80% larval mortality) Spodoptera littoralis ([3]; larval feeding/contact activity, mortality only, test as in B9): 0.8 ppm |
|  | CCS(=O)(=O)c1nc(-c2ccc(Cl)cc2)sc1-c1nc2cc(C(F)(F)F)ncc2n1C [Example P-4, 2-(4-chlorophenyl)-4-ethylsulfonyl-5-[3-methyl-6-(trifluoromethyl)imidazo[4,5-c]pyridin-2-yl]thiazole] | ≥ 80 | ≥ 80 | ≥ 80 | ≥ 80 | ≥ 80 | ≥ 80 | ≥ 80 | ≥ 80 |  |  |
|  | CCS(=O)(=O)c1cc(-c2ccc(Cl)cc2)sc1-c1nc2cc(C(F)(F)F)ncc2n1C [Example P-5, 2-[5-(4-chlorophenyl)-3-ethylsulfonyl-2-thienyl]-3-methyl-6-(trifluoromethyl)imidazo[4,5-c]pyridine] | ≥ 80 | ≥ 80 | ≥ 80 | ≥ 80 | ≥ 80 | ≥ 80 | ≥ 80 | ≥ 80 | ≥ 80 |  |
|  | CCS(=O)(=O)c1nc(-c2ncccn2)sc1-c1nc2cc(C(F)(F)F)ncc2n1C [Example P-9, 4-ethylsulfonyl-5-[3-methyl-6-(trifluoromethyl)imidazo[4,5-c]pyridin-2-yl]-2-pyrimidin-2-yl-thiazole] |  |  |  |  |  |  |  |  |  | mortality at 24 ppm [10]: ≥ 80% |
|  | CCS(=O)(=O)c1nc(-n2ccc(C(F)(F)F)n2)sc1-c1nc2cc(C(F)(F)F)ncc2n1C [Example P-10, 4-ethylsulfonyl-5-[3-methyl-6-(trifluoromethyl)imidazo[4,5-c]pyridin-2-yl]-2-[3-(trifluoromethyl)pyrazol-1-yl]thiazole] | ≥ 80 |  | ≥ 80 | ≥ 80 | ≥ 80 | ≥ 80 | ≥ 80 | ≥ 80 | ≥ 80 |  |
| 230 to 232 | CCSc1nc(-c2ncccn2)sc1-c1nc2cc(C(F)(F)F)ncc2n1C [Example P-11] |  |  |  |  |  |  |  |  |  |  |
|  | CCS(=O)(=O)c1cc(-c2ccc(Cl)cc2)sc1-c1nc2cc(SC(F)(F)F)ncc2n1C [Example P-15] | ≥ 80 | ≥ 80 | ≥ 80 | ≥ 80 | ≥ 80 | ≥ 80 | ≥ 80 | ≥ 80 | ≥ 80 |  |
| 205 to 207 | CCSc1cc(-c2ccc(Cl)cc2)sc1-c1nc2cc(C(F)(F)F)nnc2n1C [Example P-17, 6-[5-(4-chlorophenyl)-3-ethylsulfanyl-2-thienyl]-7-methyl-3-(trifluoromethyl)imidazo[4,5-c]pyridazine] |  |  |  |  |  |  |  |  |  |  |
|  | CCS(=O)(=O)c1cc(-c2ccc(Cl)cc2)sc1-c1nc2cc(C(F)(F)F)nnc2n1C [Example P-18, 6-[5-(4-chlorophenyl)-3-ethylsulfonyl-2-thienyl]-7-methyl-3-(trifluoromethyl)imidazo[4,5-c]pyridazine] | ≥ 80 | ≥ 80 | ≥ 80 | ≥ 80 | ≥ 80 | ≥ 80 | ≥ 80 | ≥ 80 | ≥ 80 |  |
